Source: article PMC11241344, “TriplEP-CPP: Algorithm for Predicting the Properties of Peptide Sequences” (International Journal of Molecular Sciences, 2024)
Peptide text beside a SMILES is read from it.

Experiments:
[1] = system: human HaCaT keratinocyte cells; assay type: cell-based; conditions: MTT test, peptide C=0,1 mM (100 µM), 24 h incubation at 37 °C, 5% CO2, absorbance 570/690 nm, mean ± standard deviation (n = 5)
Method: (§1) Since the peptides predicted as CPPs are intended to be used as safe intracellular delivery systems, it is necessary to evaluate the degree of their toxicity to mammalian cells. For this purpose, the compounds investigated were added to human HaCaT keratinocyte cells and McCoy mouse fibroblast cells at a final concentration of 100 μM.
(§2) One of the most important criteria in the search for new penetrating peptides is to ensure the safety of their further use and to assess potential problems and risks. […] Therefore, we incubated human HaCaT keratinocyte and McCoy mouse fibroblast cells with our synthesized compounds at a final concentration of 100 μM for 24 h at 37 °C. […] The use of a fluorescent tag makes it possible to observe the penetration of the peptides as well as their distribution and localization within the cells. For this purpose, the synthesized compounds were conjugated with the fluorescent tag NBD-F and incubated with cells at a final concentration of […] for 4 h at 37 °C.
(§3) McCoy mouse fibroblast cell line (ATCC® CRL-1696™) was grown in a CO2 incubator at 37 °C, 5% CO2 in DMEM medium supplemented with 10% FBS and gentamicin (10 mkg/mL). Human immortalized keratinocyte line HaCaT cells (ATCC® PCS-200-011™) were grown in CO2-incubator at 37 °C, 5% CO2 in RPMI medium supplemented with 10% FBS and gentamicin (10 mkg/mL).
(§4) The cytotoxicity of the peptides was assessed using the MTT-test (3-(4,5-dimethylthiazol-2-yl)2,5-diphenyltetrazolium bromide) according to a standard protocol. McCoy, HaCaT cells were seeded in 96-well plates to a density of 5 × 10^3 cells and 3 × 10^3 cells in each well and incubated at 37 °C, 5% CO2 for 24 h. After 24 h incubation, the cells were washed with Hanks’ balanced salt solution (HBSS). The test peptides were tested at a final concentration of 100 µM in five replicates. Fresh culture medium without added peptides was used as a negative control. […] After adding 100 µL of the test compound to the cells, the samples were incubated at 37 °C, 5% CO2 for 24 h. Next, 10 µL of MTT working solution was added to each well, followed by incubating the cells for 4 h and adding 100 µL of solubilizing buffer to dissolve the formazan crystals. The amount of MTT was measured spectrophotometrically at 570 nm and 690 nm using a Multiskan Ascent microplate photometer (ThermoScientific, Waltham, MA, USA).
(§5) Results were processed using Microsoft Office Excel. During the evaluation of cell viability in the first step, the difference between the values obtained at 570 nm and 690 nm was found for each group of measurements. Then, dose-dependent curves were plotted for each cell line. […] The next step was to recalculate the values as a percentage of the positive control and obtain the mean values and standard deviation for each peptide.

[2] = system: McCoy mouse fibroblast cells; assay type: cell-based; conditions: MTT test, peptide C=0,1 mM (100 µM), 24 h incubation at 37 °C, 5% CO2, absorbance 570/690 nm, mean ± standard deviation (n = 5)
Method: as §1, §2, §3, §4, §5

Row | Compound | Percentage of Viable Cells, HaCaT [1] [%] | Percentage of Viable Cells, McCoy [2] [%]
1 | CC(C)C[C@H](NC(=O)[C@H](CCC(N)=O)NC(=O)[C@H](Cc1c[nH]c2ccccc12)NC(=O)[C@H](Cc1c[nH]cn1)NC(=O)[C@H](CCCCN)NC(=O)[C@H](CCCCN)NC(=O)[C@H](CCC(N)=O)NC(=O)[C@H](CCCNC(=N)N)NC(=O)[C@H](Cc1ccc(O)cc1)NC(=O)[C@H](Cc1c[nH]cn1)NC(=O)[C@H](Cc1ccccc1)NC(=O)[C@H](Cc1ccc(O)cc1)NC(=O)[C@H](CCCNC(=N)N)NC(=O)[C@@H](N)CS)C(=O)O [CpHI4] (H-CRYFHYRQKKHWQL-OH) | 95.3 ± 3.5 | 95.5 ± 3.2
2 | C[C@H](NC(=O)[C@H](C)NC(=O)[C@H](CCCCN)NC(=O)[C@@H](N)CO)C(=O)N[C@@H](CC(=O)O)C(=O)N[C@@H](CCC(=O)O)C(=O)N[C@@H](CO)C(=O)N[C@@H](CCC(=O)O)C(=O)N[C@@H](CCCNC(=N)N)C(=O)O [CpHM5] (H-SKAADESER-OH) | 93.8 ± 2.4 | 96.3 ± 3.4
3 | CC[C@H](C)[C@H](NC(=O)[C@H](C)N)C(=O)N[C@@H](CCCNC(=N)N)C(=O)N[C@@H](CC(N)=O)C(=O)N[C@@H](CC(=O)O)C(=O)N[C@@H](CCC(=O)O)C(=O)N[C@@H](CCC(=O)O)C(=O)N[C@@H](CC(C)C)C(=O)N[C@@H](CC(N)=O)C(=O)N[C@@H](CCCCN)C(=O)O [CpHM6] (H-AIRNDEELNK-OH) | 92.2 ± 2.9 | 95.3 ± 3.4
4 | CSCC[C@H](NC(=O)[C@H](Cc1c[nH]cn1)NC(=O)[C@H](Cc1c[nH]c2ccccc12)NC(=O)[C@@H](NC(=O)[C@@H](N)CCCCN)[C@@H](C)O)C(=O)N[C@H](C(=O)N[C@@H](Cc1ccc(O)cc1)C(=O)N1CCC[C@H]1C(=O)NCC(=O)NCC(=O)N[C@@H](Cc1ccc(O)cc1)C(=O)N[C@@H](CC(=O)O)C(=O)N[C@@H](Cc1c[nH]cn1)C(=O)N[C@H](C(=O)N[C@@H](CCCNC(=N)N)C(=O)NCC(=O)O)[C@@H](C)O)C(C)C [CpOH10] (H-KTWHMVYPGGYDHTRG-OH) | 94.6 ± 3.3 | 94.4 ± 3.1
5 | CC[C@H](C)[C@H](NC(=O)[C@H](CCC(N)=O)NC(=O)[C@H](Cc1c[nH]c2ccccc12)NC(=O)[C@H](CCC(N)=O)NC(=O)[C@H](Cc1ccc(O)cc1)NC(=O)[C@@H](N)CO)C(=O)N[C@@H](Cc1ccccc1)C(=O)N[C@@H](Cc1ccc(O)cc1)C(=O)N[C@@H](CCCNC(=N)N)C(=O)N[C@@H](CO)C(=O)N[C@@H](CC(C)C)C(=O)N[C@@H](CC(=O)O)C(=O)NCC(=O)N[C@@H](CO)C(=O)NCC(=O)N[C@@H](C)C(=O)N[C@@H](CCCCN)C(=O)N[C@@H](CCC(=O)O)C(=O)O [CpRE12] (H-SYQWQIFYRSLDGSGAKE-OH) | 84.4 ± 4.0 | 87.6 ± 4.6
6 | CC(C)[C@H](NC(=O)[C@@H](N)[C@@H](C)O)C(=O)N[C@@H](C)C(=O)N[C@@H](CC(N)=O)C(=O)N[C@@H](Cc1ccccc1)C(=O)N[C@@H](CCCCN)C(=O)N[C@H](C(=O)N[C@@H](CC(N)=O)C(=O)N[C@@H](CO)C(=O)N[C@@H](C)C(=O)N[C@@H](C)C(=O)N1CCC[C@H]1C(=O)N1CCC[C@H]1C(=O)N[C@@H](C)C(=O)N[C@@H](C)C(=O)N[C@@H](CCC(=O)O)C(=O)N1CCC[C@H]1C(=O)N1CCC[C@H]1C(=O)N[C@@H](CCCNC(=N)N)C(=O)O)[C@@H](C)O [CpRE13] (H-TVANFKTNSAAPPAAEPPR-OH) | 90.6 ± 3.6 | 89.7 ± 3.3
7 | CC[C@H](C)[C@H](NC(=O)CN)C(=O)NCC(=O)N[C@@H](C)C(=O)N[C@H](C(=O)N[C@@H](CC(C)C)C(=O)N[C@@H](CCCCN)C(=O)N[C@H](C(=O)N[C@@H](CC(C)C)C(=O)N[C@H](C(=O)N[C@H](C(=O)NCC(=O)N[C@@H](CC(C)C)C(=O)N1CCC[C@H]1C(=O)N[C@@H](C)C(=O)N[C@@H](CC(C)C)C(=O)N[C@H](C(=O)N[C@@H](CO)C(=O)N[C@@H](Cc1c[nH]c2ccccc12)C(=O)N[C@H](C(=O)N[C@@H](CCCCN)C(=O)N[C@@H](CCCNC(=N)N)C(=O)N[C@@H](CCCCN)C(=O)N[C@@H](CCCNC(=N)N)C(=O)N[C@@H](CCC(N)=O)C(=O)N[C@@H](CCC(N)=O)C(N)=O)[C@@H](C)CC)[C@@H](C)CC)[C@@H](C)O)[C@@H](C)O)C(C)C)C(C)C [melittin, reference compound] | 0.1 ± 0.1 | 0.0
